From patent publication US20240309389A1, “Chimeric FCeRI a-Chain Gene, Chimeric FCeRI a-Chain Protein, Cells, Analysis Kit and Analysis Method” (TEIKYO HEISEI UNIVERSITY, priority 2021, published 2024) come the findings set out here.

Common to all, as to assay type: cell-based, rat
The test system of assay [1] is RBL-NL4 cells. The assay is described as follows: Luciferase expression on stimulation in RBL-NL4 cells. The settings on record: unsensitized, 250 μM, 37° C., 3 hours. The method, then:
Luciferase expression of when stimulated with ionomycin, anti-human IgE antibody, or specific antigen is confirmed for each of cultures obtained by culturing the seven clones obtained in (2) above and RBL-NL4 cells. Specifically, the confirmation was carried out as follows.
On the day before the test for confirming luciferase expression when the stimulus was applied, the following operations were performed. […] The medium was placed in each well of a white 96-well plate made of plastic with a transparent bottom (product number: 165306, Thremo). Cells of each clone were then seeded at 5×10^4 cells/50 μL per well, and allowed to stand overnight in an incubator for sensitization. […]
After applying the stimulation, 50 μL/well of a substrate solution (One-Glo Luciferase Assay System, Promega) was added to each well and allowed to react for 5 minutes, and then the luminescence intensity was measured using a luminometer (GloMax, Promega).
In FIG. 7, black dots indicate the measured luciferase luminescence intensity (unit: CPS) (right axis: LUMINESCENCE (CPS)). […] The relative luminescence intensity is the relative luminescence intensity when the luminescence intensity of each clone when unstimulated is set to 1, and is shown on a log scale.

In assay [2] the test system is RS-ATL8 cells. Nature of the assay: IgE crosslinking-induced luciferase expression, inhibitor evaluation in RS-ATL8 cells. The method, then: (§1) HuRa-40 cells and RS-ATL8 cells were prepared.
(§2) After washing the sensitized cells with PBS three times, […] was added and stimulated at 37° C. for 3 hours.
(§3) After the stimulation time had elapsed, Bright-Glo (Promega) substrate solution was added to each well in an amount of 50 μL/well, and reacted for 5 minutes at room temperature while shielding from light. After that, the luminescence intensity was measured with a microplate reader (GloMax, Promega).
(§4) A study similar to that described above was performed with cyclosporin A instead of omalizumab. Specifically, RS-ATL8 cells or HuRa-40 cells were added with cyclosporin A at a final concentration of 0 to 1 μg/mL, and, 30 minutes later, 50 ng/ml of human IgE was added to sensitize them overnight. After washing with PBS three times, the cells were stimulated with an anti-human IgE antibody for 3 hours, and Bright-Glo was added to measure luminescence.

The subject of assay [3] is HuRa-40 cells. Nature of the assay: IgE crosslinking-induced luciferase expression, inhibitor evaluation in HuRa-40 cells. The method, then:
as §1, §2, §3, §4

[4] abbreviates: drug added 30 min before 50 ng/ml human IgE overnight sensitization, anti-human IgE stimulation 3 h, read from FIG. 17.
Where [5] appears, read: omalizumab 100 μg/mL, fraction of the 0 μg/mL value.

For `C[C@H](CCC(=O)O)C[C@H](C)C[C@H](C)C(=O)/C=C(\O)[C@H](C)C[C@H](C)C/C=C/[C@@H](C)[C@@H](O)[C@@H](C)[C@@H](O)C[C@@H]1CC[C@@](C)([C@H]2CC[C@@](C)([C@@H](C)O)O2)O1` [ionomycin], the “luciferase expression level compared to anti-human IgE antibody stimulation (no IgE and aIgE)” value in assay [1] is listed as “greatly increased”.
For Omalizumab, the “change of luminescence intensity, concentration increased from 0.1 μg/mL to 1 μg/mL” value in assay [2] is reported as “decreased slightly”; in assay [3], “significant decrease in luminescence intensity”. For the same compound, in assay [2], the “change of luminescence intensity, concentration increased from 1 μg/mL to 10 μg/mL” value is reported as “further decreased”. For the same compound, the results for the “50% inhibitory concentration (IC50)” value in assay [2] (setting [4]) and in assay [3] (setting [4]) were “greater than 1 μg/mL” and “less than 1 μg/mL”, respectively. Also, the figures for the “luminescence intensity at 100 μg/mL compared to 0 μg/mL” value in assay [2] (setting [5]) and in assay [3] (setting [5]) were “about ¼” and “less than 1/30”, respectively.
